# Measured values from patent US11986458B1, “Natural and synthetic andrographolides compounds for the treatment of skeletal muscular dystrophies” (Innobiosciences LLC, priority 2018, dated 2024).
# Columns and labels:
# [1] = tested on: MES-13 cells; details: cited from earlier work; for intracellular oxidative states: high glucose cultured MES-13 cells
# [2] = tested on: cholestasis-induced apoptosis; details: in vivo; cited from earlier work
# [3] = tested on: mdx mice; assay: Isometric force of isolated muscles from treated exercised mdx mice; assay type: in vivo, mouse; details: treadmill exercise, andrographolide 1.0 mg/kg/day ip, prednisone 5 mg/kg, single electro-stimulation and high frequency stimulation
# Procedure: We used 12-week-old control or mdx male mice of the C57BL/10 ScSn strain. The animals were kept at room temperature with a 24-hour night-day cycle and were fed with pellets and water ad libitum. Experimental exercise involved running the mice on a treadmill three times per week for 30 minutes each session at 12 m/minute over three or four months. […]
# The isometric force of isolated muscles was measured as described previously. Briefly, optimum muscle length (Lo) and stimulation voltage were determined from micromanipulation of muscle length to produce maximum isometric twitch force. Maximum isometric tetanic force (Po) was determined from the plateau of the frequency-force relationship after successive stimulations at 1 to 200 Hz for 450 ms, with 2-minute rests between stimuli. […]
# [4] = tested on: mdx mouse; details: cited from earlier work
# [5] = tested on: mdx mice; assay: Life expectancy / survival of mdx mice under life-long treatment; assay type: in vivo, mouse
# Procedure: Groups of mdx mice were treated with or without andrographolide (1.0 mg/kg/day) 3 times per weeks starting at one month old until they die naturally. The animals were maintained under free food and water access all the time. Days of death was recorded.
# To evaluate whether andrographolide affects survival in dystrophic mice we perform a long term treatment with andrographolide through intra-peritoneal injections, three times per weeks starting at one month old until they die naturally, in order to determine the effects over life expectancy in mdx mice.
# [6] = tested on: CTGF; details: in vitro (skeletal cells); cited from earlier work
# [7] = tested on: mdx mice; assay: Skeletal muscle histology (H&E) and collagen type I indirect immunofluorescence, tibialis anterior of mdx mice; assay type: in vivo, mouse; details: 3 months administration; for damaged areas in muscle, Hematoxylin and Eosin staining: tibialis anterior, compared to vehicle-treated mdx mice
# Procedure: We used 12-week-old control or mdx male mice of the C57BL/10 ScSn strain. The animals were kept at room temperature with a 24-hour night-day cycle and were fed with pellets and water ad libitum. Experimental exercise involved running the mice on a treadmill three times per week for 30 minutes each session at 12 m/minute over three or four months. See Morales, MG. et al., Reducing CTGF/CCN2 Slows Down MDX Muscle Dystrophy And Improves Cell Therapy, 22 Hum Mol Genet 4938 (2013), DeLuca, A. et al., Enhanced Dystrophic Progression In MDX Mice By Exercise And Beneficial Effects Of Taurine And Insulin-Like Growth Factor-1, 304 J Pharmacol Exp Ther 453 (2003), DeLuca, A. et al., A Multidisciplinary Evaluation Of The Effectiveness Of Cyclosporine A In Dystrophic MDX Mice, 166 Am J Pathol 477 (2005), Cabello-Verrugio, C. et al., Angiotensin II Receptor Type 1 Blockade CTGF/CCN2-Mediated Damage And Fibrosis In Normal And Dytrophic Skeletal Muscles, 16 J Cell Mol Med 752 (2012). Four experimental groups were designed: animals in the first group were injected intraperitoneally (ip) with andrographolide (1.0 mg/kg/day). Animals in the second group were treated with prednisone (5 mg/kg). Third group, animals were treated with prednisone together with andrographolide. Fourth group animals were injected with saline. At the end of the experiment the muscles were dissected and removed under anesthesia (isofluorane gas) and then the animals were sacrificed. Tissues were used for electrophysiological measurement or rapidly frozen and stored at −80° C. until processing. All protocols were conducted in strict accordance with guidelines and with the formal approval of the Animal Ethics Committee of the Pontificia Universidad Católica de Chile.
# Architecture and histology were detected by hematoxylin-eosin (H&E) stain in transverse sections of muscle. See Morales, MG. et al., CTGF/CCN-2 Over-Expression Can Directly Induce Features Of Skeletal Muscle Dystrophy, 225 J Pathol 490 (2011). Collagen Type I was determined as described in Morales, MG. et al., Reducing CTGF/CCN2 Slows Down MDX Muscle Dystrophy And Improves Cell Therapy, 22 Hum Mol Genet 4938 (2013).
# Tissue samples evaluated using collagen type I immuno-staining. […] We posit that this prevents tissue damage in mdx mice.
# [8] = tested on: patients with Duchenne Muscular Dystrophy; assay: PedsQL for Duchenne Muscular Dystrophy Module questionnaire in pediatric DMD patients; assay type: in vivo, human; details: 70 mg orally twice per day
# Procedure: Thirteen pediatric patients were derived from the Chilean Duchenne Association with confirmed clinical diagnostic. Of the thirteen patients, seven of them used chronic glucocorticoid treatment (Table A). Two of the patients had disease advanced enough so that the patients were no longer ambulatory.
# All patients, both those treated with glucocorticoid and those not requiring glucocorticoid, received 70 mg andrographolide (as a standardized extract) orally two times per day. Treatment periods ranged from one month to more than twelve months. […] (Table B)
# Thirteen (13) children with DMD of different ages (ranging from 4 to 14 years old) were treated with Andrographis paniculata capsules (either taking corticosteroids or not) for a variable period of time (ranging from one month to two years) (Table A).
# Each parent or tutor received a questionnaire with different scores parameters to be completed. The parents were asked to fill out the Pediatric Quality of Life Inventory TM questionnaire (PedsQL for Duchenne Muscular Dystrophy Module) of their perception about; Quality of life, Sleep, Pain, Cold, Walk/Move, Play/Run, Jump, Coordination, Force and Mood of children during Andrographis paniculata treatment (Table B).
# [9] = tested on: DMD; details: glucocorticoids such as prednisone; cited from earlier work
# [10] = tested on: dystrophin; details: mdx mice; cited from earlier work
# [11] = tested on: dystrophin; details: cited from earlier work
# [12] = 12 DMD patients over a six-month period
molecule,measurement,setting,value
"C=C1CCC2C(C)(CO)C(O)CCC2(C)C1C=CC1=CCOC1=O (stereo not drawn) [AP2, 14-deoxy-11,12-didehydro-andrographolide]","reduction of apoptosis marker caspase-3, fibrosis marker TGF-β1, and PAI-1","[1]; MES-13 cells, comparison AP2 vs AP1",more potent activity than AP1
same,phenotypes indicating diabetic nephropathy,[1]; MES-13 cells,reduced the phenotypes indicating diabetic nephropathy
same,antioxidant ability in a cellular environment,[1],do not have antioxidant ability
same,intracellular oxidative states,[1],reduced intracellular oxidative states
"C=C1CC[C@@H]2[C@](C)(CO)[C@H](O)CC[C@@]2(C)[C@@H]1C/C=C1/C(=O)OC[C@H]1O [andrographolide, 3-[2-[Decahydro-6-hydroxy-5-(hydroxymethyl)-5,8a-dimethyl-2-methylene-1-napthalenyl]ethylidene]dihydro-4-hydroxy-2(3H)-furanone]",protection against cholestasis-induced apoptosis,[2],potent protector
same,phenotypes indicating diabetic nephropathy,[1]; MES-13 cells,reduced the phenotypes indicating diabetic nephropathy
same,antioxidant ability in a cellular environment,[1],do not have antioxidant ability
same,intracellular oxidative states,[1],reduced intracellular oxidative states
same,isolated muscle strength (maximal switch force and tetanic contraction),[3],improved muscle contraction at similar levels than the induced by prednisone
same,muscle associated fibrosis,"[4]; animal model of DMD, the mdx mouse",significantly reduces muscle associated fibrosis
same,exercise resistance in dystrophic mice,[4]; mdx mouse,increase exercise resistance
same,skeletal muscle force in dystrophic muscles,[4]; mdx mouse,increase
same,total life expectancy,"[5]; mdx mice, 1.0 mg/kg/day ip three times per week from one month old until natural death, n=6",around 21.7±2.35 months
same,increase of life expectancy of dystrophic mice,[5]; versus vehicle-treated mdx mice,15%
same,expression of pro-fibrotic factor CTGF,[6],able to inhibit
same,"fibrosis, collagen type I immuno-staining",[7],diminish fibrosis
same,"damaged areas in muscle, Hematoxylin and Eosin staining",[7],prevented the increase of damaged areas
same,"improvement in quality of life, quality of sleep, pain, colds, coordination, force and mood",[8]; 13 DMD patients,important improvement
same,overall effect on PedsQL parameters,"[8]; all 13 DMD patients, one month to more than twelve months",slight to important improvement
"C[C@]12C=CC(=O)C=C1CC[C@@H]1[C@@H]2C(=O)C[C@@]2(C)[C@H]1CC[C@]2(O)C(=O)CO [prednisone, reference compound]",isolated muscle strength (maximal switch force and tetanic contraction),[3],improved muscle contraction
same,"fibrosis, collagen type I immuno-staining",[7],diminish fibrosis
same,"damaged areas in muscle, Hematoxylin and Eosin staining",[7],prevented the increase of damaged areas
same,side effects,[9],severe side effects
gentamicin,dystrophin expression in muscle fibers above normal levels,[10],20%
same,clinical benefits,[11]; [12],no clinical benefits were observed
same,patients with dystrophin expression detected,[11]; [12],6 of the 12
same,muscle strength and re-expression of dystrophin in muscles,[11]; one of the studies on DMD patients,beneficial effect on muscle strength and a re-expression of dystrophin in muscles
